From ChEMBL document CHEMBL3639022, “Azolopyridin-3-one derivatives as inhibitors of lipases and phospholipases” (2015)

Target: T1, Endothelial lipase (Homo sapiens, UniProt Q9Y5X9)
T1 sequence (Q9Y5X9 whole entry): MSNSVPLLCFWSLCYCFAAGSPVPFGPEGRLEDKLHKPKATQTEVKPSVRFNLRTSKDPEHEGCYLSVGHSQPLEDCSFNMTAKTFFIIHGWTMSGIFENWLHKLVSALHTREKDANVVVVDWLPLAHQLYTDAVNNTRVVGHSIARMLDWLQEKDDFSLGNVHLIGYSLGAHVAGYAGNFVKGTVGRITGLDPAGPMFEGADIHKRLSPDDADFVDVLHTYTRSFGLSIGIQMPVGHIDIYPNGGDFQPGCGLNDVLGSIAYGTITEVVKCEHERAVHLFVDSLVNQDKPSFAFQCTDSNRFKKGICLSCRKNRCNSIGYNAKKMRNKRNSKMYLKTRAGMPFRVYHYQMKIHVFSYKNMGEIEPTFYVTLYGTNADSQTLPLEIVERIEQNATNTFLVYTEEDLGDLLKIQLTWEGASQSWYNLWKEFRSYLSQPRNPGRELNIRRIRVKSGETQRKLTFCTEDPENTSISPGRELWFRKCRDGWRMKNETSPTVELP
Assay: Enzyme Assay: For characterization of the enzymatic activity of endothelial lipase and the effect of inhibitors, the phospholipase-specific substrate 1,2-bis(4,4-difluoro-5,7-dimethyl-4-bora-3a,4a-diaza-s-indacene-3-undecanoyl)-sn-glycero-3-phosphocholine (manufacturer: Molecular Probes) was used. Hydrolysis of the A1 ester bond of this phospholipid by the enzyme releases the fluorescent dye Bodipy, which can be detected by measuring the fluorescence after separation by thin-layer chromatography on an HPTLC plate (silica gel 60, Merck) or directly in the reaction vessel. To prepare the substrate solution, 100 ug of 1,2-bis(4,4-difluoro-5,7-dimethyl-4-bora-3a,4a-diaza-s-indacene-3-undecanoyl)-sn-glycero-3-phosphocholine (manufacturer: Molecular Probes) were dissolved in 100 ul of DMSO and taken up in 2.4 mg of tripalmitin (Sigma) in 393 ul of chloroform which contained 20 mg/ml DOPcholine (1,2-dioleoyl-sn-glycero-3-phosphocholine).

O=C(NCc1ccccc1OC(F)F)n1sc2ncccc2c1=O
IC50: 138 nM
